For the experiment, the system named is striatal synaptosomes. As to the kind of experiment: [3H]leucine uptake assay in rat striatal synaptosomes (electrochemical gradients). Type of experiment: cell-based. Conditions: 15 min preincubation, [3H]leucine 10 min. Here is the method:
[^3H]Leucine Uptake Assay. […] The uptake assay was performed in duplicate with a final volume of 250 μl. […] TatΔ31-61 and leucine were chosen as negative and positive controls, respectively. Assay tubes were placed in an oxygenated metabolic shaker at 34° C. for 15 min. Subsequently, 1 μM [^3H]leucine (final concentration, 25 μl) was added to each tube and incubation was continued for 10 min at 34° C. in the metabolic shaker. […] Nonspecific uptake for [^3H]leucine and [^3H]DA was determined in the presence of 10 mM L-lysine and 10 μM nomifensine, respectively. Incubation was terminated by the addition of 3 ml of ice-cold assay buffer, followed by immediate filtration through Whatman GF/B glass fiber filters. Filters were washed 3 times with 3 ml ice-cold assay buffer using a Brandel cell harvester.

As for `CC(C)C[C@H](N)C(=O)O` [leucine], the inhibition at 1 µM (1 μM) was about 10%. The inhibition at 10 µM (10 μM, read-out: inhibition / decrease of [3H]leucine uptake) is about 40%.

These data come from patent US20100125053A1, “Allosteric Modulation of the Dopamine Transporter Protein for the Treatment of HIV-1 Induced Neurologic Dysfunction” (priority 2008, published 2010).
